Laboratory results from patent US20160095837A1, “MODULATION OF MITOCHONDRIAL CALCIUM UNIPORTER ACTIVITY FOR TREATING AND PREVENTING ARRHYTHMIAS” (priority 2014, published 2016).

Legend:
[1] = test system: sinoatrial nodal (SAN) pacemaker cells; assay: Spontaneous action potential rate of single SAN cells (perforated patch clamp); assay type: cell-based, mouse
Method: SAN cells were placed in Tyrode's solution at 36±0.5° C. and were identified by their characteristic morphology (spindle or spider shape) and spontaneous activity. SAN cells were identified electrophysiologically by spontaneous action potentials with a slow depolarizing phase 4 and the hyperpolarization-activated current (If).^27 Spontaneous action potentials, If and ICa were recorded using the perforated (amphotericin B or β-escin in studies requiring dialysis of Ru360 and/or ATP) patch-clamp technique^28 on single SAN cells at 36±0.5° C. in Tyrode's solution. Intracellular Ca^2+ transients were recorded from single SAN cells using Fura-2 AM excited at 340 nm and 380 nm and emitted and 510 nm. Endogenous NADH from single SAN cells was measured by excitation at 350 nm and recording emitted light at 460 nm.^29 Mitochondrial Ca^2+ was measured at 535 nm from mt-pericam expressing SAN cells exited at 415 nm^20. Mitochondrial Ca^2+ entry was measured in cell membrane permeabilized cardiomyocytes isolated from DN-MCU transgenic, wild type mice and from HEK293 cells using Calcium green-5N^30.
Isolation of single SAN cells from mice was performed according to previously published methods^22, 27, 31 with minor modifications. Mice were administered an intraperitoneal injection of avertin (20 μl/g) and monitored until unresponsive. The heart was excised and placed into Tyrode's solution (35° C.), consisting of (mM) 140 NaCl, 5.0 HEPES, 5.5 Glucose, 5.4 KCl, 1.8 CaCl2, and 1.0 MgCl2. The pH was adjusted to 7.4 with NaOH. […] The SAN was cut into smaller pieces, which were transferred and rinsed in a solution containing (mM) 140 NaCl, 5.0 HEPES, 5.5 Glucose, 5.4 KCl, 0.2 CaCl2, 0.5 MgCl2, 1.2 KH2PO4, 50 Taurine and 1 mg/ml bovine serum albumin (BSA), with pH adjusted to 7.4 using NaOH. SAN tissue pieces were digested in 5 ml of solution containing collagenase type I, elastase (Worthington), and protease type XIV (Sigma) for 20-30 min. The tissue was transferred to 10 ml of Kraft-Bruhe (KB) medium containing (mM) 100 potassium glutamate, 5.0 HEPES, 20 Glucose, 25 KCl, 10 potassium aspartate, 2.0 MgSO4, 10 KH2PO4, 20 taurine, 5 creatine, 0.5 EGTA, and 1 mg/ml BSA, with pH adjusted to 7.2 using KOH. The tissue was agitated using a glass pipette for 10 min. The cells were stored at 4° C. and studied within 7 hours.
SAN cells were placed in Tyrode's solution at 36±0.5° C. SAN cells were identified by their characteristic morphology (spindle or spider shape) and spontaneous activity in all single cell experiments. SAN cells were also identified electrophysiologically by typical spontaneous action potentials with slow depolarizing phase 4 and the hyperpolarization-activated current (If) in electrophysiological experiments.
Spontaneous action potentials (APs) and If were recorded using the perforated (amphotericin B or β-escin) patch-clamp technique^28 on single SAN cell at 36±0.5° C. in Tyrode's solution (0.5 mM BaCl2 was added to the bath solution when recording If^32). The pipette was filled with (mM) 130 potassium aspartate, 10 NaCl, 10 HEPES, 0.04 CaCl2, amphotericin B 240 μg/ml with pH adjusted to 7.2 with KOH. SAN cells with stable APs lasting at least 5 min were included in the experiments. β-escin 25 μM was substituted for amphotericin B to allow dialysis of Ru360 or ATP. When recording If, membrane potential was held at −35 mV, the voltage steps were applied for 5 s ranging from −125 mV to −45 mV in 10 mV increments or vice versa.^33 ICa was measured using the perforated patch technique at […] as previously described.^22 ICa was confirmed by its sensitivity to Nifedipine 5 μM. Depolarizing voltage pulses (300 ms in duration) to various potentials (−60 mV to 60 mV in 10 mV step) were applied after 50 ms at −40 mV to inactivate INa from a holding potential of −70 mV. […]

mitochondria = details: read-out: Kd, binding to mitochondria; cited from earlier work

(μ)[(HCO2)(NH3)4Ru]2OCl3) [Ru360]
Basal SAN cell rates ([1]; dialysis, no ISO): neither Ru360 nor ATP had any affect | SAN cell action potential frequency increases to ISO ([1]; freshly isolated SAN cells dialyzed with Ru360 5 μM, vs cells without Ru360): significantly reduced | Kd (mitochondria): 0.34 nM
